{"source": "patent US20160102073A1", "about": "“2-HYDROXYMETHYL-SUBSTITUTED OREXIN RECEPTOR ANTAGONISTS” (MERCK SHARP & DOHME CORP., priority 2013, published 2016)", "key": {"[1]": {"biological_target": "T1, human orexin-1 receptor (hOX1R) (Homo sapiens, UniProt O43613)", "T1 construct": "expressed in transfected cells; host or cells: Chinese hamster ovary (CHO) cells, grown under G418 selection", "T1 sequence (O43613 1-425)": "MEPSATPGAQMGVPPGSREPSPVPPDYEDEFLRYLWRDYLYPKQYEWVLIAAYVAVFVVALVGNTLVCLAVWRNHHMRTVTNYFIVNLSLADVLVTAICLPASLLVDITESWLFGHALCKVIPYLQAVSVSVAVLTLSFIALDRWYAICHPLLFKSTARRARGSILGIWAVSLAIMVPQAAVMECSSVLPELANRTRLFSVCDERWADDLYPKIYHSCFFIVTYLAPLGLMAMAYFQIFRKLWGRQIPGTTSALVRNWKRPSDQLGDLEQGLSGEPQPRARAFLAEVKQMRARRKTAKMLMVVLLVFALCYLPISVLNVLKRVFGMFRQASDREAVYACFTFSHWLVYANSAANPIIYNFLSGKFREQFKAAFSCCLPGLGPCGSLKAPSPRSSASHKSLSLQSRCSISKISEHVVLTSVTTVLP", "experiment": "FLIPR Ca2+ Flux Assay, CHO cells expressing hOX1R", "type": "cell-based", "conditions": "agonist 70 pM Ala-6,12 orexin-A"}, "[2]": {"biological_target": "T2, human orexin-2 receptor (hOX2R) (Homo sapiens, UniProt O43614)", "T2 construct": "expressed in transfected cells; host or cells: Chinese hamster ovary (CHO) cells, grown under G418 selection", "T2 sequence (O43614 1-444)": "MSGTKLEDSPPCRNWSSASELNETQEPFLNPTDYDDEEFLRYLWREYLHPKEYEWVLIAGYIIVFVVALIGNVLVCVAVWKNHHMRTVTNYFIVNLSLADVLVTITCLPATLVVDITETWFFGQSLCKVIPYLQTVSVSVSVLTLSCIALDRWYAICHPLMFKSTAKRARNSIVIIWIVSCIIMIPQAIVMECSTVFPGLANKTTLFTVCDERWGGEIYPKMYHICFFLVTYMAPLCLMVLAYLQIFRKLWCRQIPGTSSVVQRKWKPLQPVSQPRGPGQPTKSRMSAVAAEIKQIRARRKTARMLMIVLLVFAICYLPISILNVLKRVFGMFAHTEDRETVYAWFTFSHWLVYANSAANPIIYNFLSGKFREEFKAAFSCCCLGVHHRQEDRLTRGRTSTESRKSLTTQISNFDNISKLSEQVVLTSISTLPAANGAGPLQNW", "experiment": "FLIPR Ca2+ Flux Assay, CHO cells expressing hOX2R", "type": "cell-based", "conditions": "agonist 70 pM Ala-6,12 orexin-A"}}, "note": "pIC50: −log10 of the molar value."}
{"smiles": "Cc1ccc(CO)c(O[C@@H]2CC[C@@H](C)N(C(=O)c3ccccc3-n3nccn3)C2)n1", "note": "[Example 45, (6-Methyl-2-{[(3R,6R)-6-methyl-1-{[2-(2H-1,2,3-triazol-2-yl)phenyl]carbonyl}piperidin-3-yl]oxy}pyridin-3-yl)methanol]", "values": [{"measurement": "pIC50", "setting": "[1]", "result": 7.02}, {"measurement": "pIC50", "setting": "[2]", "result": 7.54}]}
{"smiles": "COc1ccnc(O[C@@H]2CC[C@@H](C)N(C(=O)c3ccccc3-n3nccn3)C2)c1CO", "note": "[Example 46, (4-Methoxy-2-{[(3R,6R)-6-methyl-1-{[2-(2H-1,2,3-triazol-2-yl)phenyl]carbonyl}piperidin-3-yl]oxy}pyridin-3-yl)methanol]", "values": [{"measurement": "pIC50", "setting": "[1]", "result": 5.93}, {"measurement": "pIC50", "setting": "[2]", "result": 7.47}]}
{"smiles": "COc1ccnc(O[C@@H]2CC[C@@H](C)N(C(=O)c3cccc(F)c3-n3nccn3)C2)c1CO", "note": "[Example 47, (3-Fluoro-2-(2H-1,2,3-triazol-2-yl)phenyl)((2R,5R)-5-((3-(hydroxymethyl)-4-methoxypyridin-2-yl)oxy)-2-methylpiperidin-1-yl)methanone]", "values": [{"measurement": "pIC50", "setting": "[1]", "result": 5.70}, {"measurement": "pIC50", "setting": "[2]", "result": 7.09}]}
{"smiles": "C[C@@H]1CC[C@@H](Oc2ncccc2C(C)(C)O)CN1C(=O)c1ccccc1-n1ncnn1", "note": "[Example 48, 2-(2-{[(3R,6R)-6-Methyl-1-{[2-(2H-tetrazol-2-yl)phenyl]carbonyl}piperidin-3-yl]oxy}pyridin-3-yl)propan-2-ol]", "values": [{"measurement": "pIC50", "setting": "[1]", "result": 6.81}, {"measurement": "pIC50", "setting": "[2]", "result": 7.68}]}
{"smiles": "COc1ccc(C(=O)N2C[C@H](Oc3ncccc3CO)CC[C@H]2C)c(-n2nccn2)n1", "note": "[Example 49, (2-{[(3R,6R)-1-{[6-Methoxy-2-(2H-1,2,3-triazol-2-yl)pyridin-3-yl]carbonyl}-6-methylpiperidin-3-yl]oxy}pyridin-3-yl)methanol]", "values": [{"measurement": "pIC50", "setting": "[1]", "result": 5.00}, {"measurement": "pIC50", "setting": "[2]", "result": 6.23}]}
{"smiles": "C[C@@H]1CC[C@@H](Oc2ncccc2CO)CN1C(=O)c1ccccc1-n1ncnn1", "note": "[Example 50, (2-{[(3R,6R)-6-methyl-1-{[2-(2H-tetrazol-2-yl)phenyl]carbonyl}piperidin-3-yl]oxy}pyridin-3-yl)methanol]", "values": [{"measurement": "pIC50", "setting": "[1]", "result": 5.73}, {"measurement": "pIC50", "setting": "[2]", "result": 6.54}]}
